# Results as given in article PMC8279416, “Structural Fine-Tuning of Desmuramylpeptide NOD2 Agonists Defines Their In Vivo Adjuvant Activity” (Journal of Medicinal Chemistry, 2021).
# Columns and labels:
# human PBMCs = experiment: Cytokine release from peripheral blood mononuclear cells (cytometric bead array); assay type: cell-based; details: 2 μM, 18 h, without LPS
# Method: The immunostimulatory effects of the selected desmuramylpeptides were evaluated using human primary peripheral blood mononuclear cells (PBMCs). This heterogeneous mixture of immune cells allowed the study of the effects of these NOD2 agonists in a physiologically relevant system, where other NOD2-interacting and downstream signaling proteins were present. The effects of desmuramylpeptides were first determined for the secreted cytokine profile using a cytometric bead array cytokine kit. Moreover, considering that activation of NOD2 is also an important amplification signal for Toll-like receptor (TLR)-induced inflammatory responses,[79]−[81] we also examined the effects on cytokine secretion of the combination of desmuramylpeptides with LPS, a well-known TLR4 agonist.
# In line with previous studies, the effects of MDP and the desmuramylpeptides were most pronounced for the induction of the chemokine IL-8.[82]
# Peripheral blood mononuclear cells were seeded (1 × 10^6 cells/mL) in 48-well plates in 500 μL of growth medium and treated with the compounds (2 μM) or with the corresponding vehicle (0.1% DMSO) in the absence and presence of LPS (10 ng/mL). Cell-free supernatants were collected after 18 h of incubation (37 °C, 5% CO2) and stored at −80 °C until tested. Cytokine production was determined with the BD Cytometric Bead Array Human Inflammatory Cytokines Kit (contents: IL-8, IL-1β, IL-6, IL-10, TNF, IL-12p70; BD Bioscience) on an Attune NxT flow cytometer (Thermo Fisher Scientific, Waltham, MA, U.S.A.). Standard curves were generated using recombinant cytokines contained in the kit. The data were analyzed using the FlowJo (Tree Star, Inc., Ashland, OR, U.S.A.) and Prism (GraphPad, San Diego, CA, U.S.A.) software. The experiments were repeated as four independent biological replicates. Statistical significance was determined by repeated measures one-way ANOVA followed with Dunnett’s multiple comparisons test.
# NIH/OlaHsd mice = experiment: In vivo ovalbumin-specific antibody response, first experiment (neutral liposomes); parameters: species or system mouse; details: for Log10 (anti-OVA IgG1/anti-OVA IgG2a): first in vivo experiment, one week after the booster dose, mean ± SEM of 5 mice; for Boost in the elicited ovalbumin-specific IgG response: vs liposomes without adjuvant
# Method: To determine whether enhanced antigen presentation in vitro is correlated to in vivo adjuvant activities, an immunization study was performed in a murine model of adjuvanticity. Specifically, the selected desmuramylpeptides were investigated for induction of systemic immune responses against the model antigen ovalbumin. Seven groups of NIH/OlaHsd mice were immunized with ovalbumin-containing neutral liposomes, either alone or with additional adjuvants of MDP or the desmuramylpeptides 1, 68, 74, 75, or 81. After immunization and one booster dose, the mice sera were collected and assayed for ovalbumin-specific IgG antibodies (Figure 10).
# Multilamellar liposomes were prepared by the modified thin lipid film method as described previously.[130],[131] For the preparation of neutral liposomes, a 7:5 molar ratio of egg-phosphatidylcholine and cholesterol was used. For the preparation of negatively charged liposomes, a 7:5:1 molar ratio of egg-phosphatidylcholine, cholesterol, and dicetylphosphate was used, while a 7:5:0.5 molar ratio of egg-phosphatidylcholine, cholesterol, and Man-PEG-Pam was used in the preparation of mannosylated liposomes. Lipids (total lipid concentration, 4 mg/mL) were dissolved in chloroform/methanol (2:1). A methanol or chloroform/methanol solution of MDP or the desmuramylpeptides was added to the lipid solution for a final concentration of 2 mM and 1.5 mM for the first (Figure 10) and second (Figure 11) experiments, respectively. After rotary evaporation of the solvent, the remaining lipid film was dried in vacuum for 1 h and then dispersed by gentle handshaking in an ovalbumin solution in saline (0.0667 and 0.1 mg/mL for the first and second experiments, respectively). This was then left overnight at 4 °C to swell and stabilize. Liposome size was reduced by sonification. Nonentrapped material was not separated from liposomes, and the complete liposome suspension was used for immunizations.
# For the first experiment (Figure 10), sex-matched NIH/OlaHsd mice (five per group) were immunized subcutaneously in the tail base and boosted one time after 21 days. The injection volume in all experimental groups was 0.15 mL per mouse, which corresponds to 10 μg of OVA, […], and 0.30 μmol of MDP and desmuramylpeptides. For the second experiment (Figure 11), sex-matched NIH/OlaHsd mice (five per group) were immunized and boosted two times subcutaneously into the tail base at 21-day intervals. The injection volume in all experimental groups was 0.1 mL per mouse, which corresponds to 10 μg of OVA, 400 μg of lipids, and 0.15 μmol of MDP and 75. The mice were anesthetized with ip application of ketamine/xylazine (25 mg/kg each) prior to blood collection from the axillary plexus on the seventh day after the last booster dose. Individual serum from each animal was decomplemented at 56 °C for 30 min and then stored at −20 °C until tested.
# ELISA assays were performed as detailed previously.[46] Briefly, high-binding ELISA plates (Costar, U.S.A.) were coated with a 15 μg/mL solution of ovalbumin in carbonate buffer, pH 9.6, and incubated overnight at room temperature. Nonspecific antibody binding was blocked with 0.5% w/v bovine serum albumin in PBS-T (0.05% (v/v) Tween 20 in phosphate-buffered saline) for 2 h at 37 °C. After washing, five serial dilutions of mice sera and standard preparations were added in duplicate. Plates were incubated overnight at room temperature, washed, and analyzed for ovalbumin-specific IgG levels by incubation with HRP-conjugated goat anti-mouse IgG (2 h at 37 °C) and then, after washing, with 0.6 mg/mL o-phenylenediaminedihydrochloride solution in citrate-phosphate buffer, pH 5.0, with 0.5 μL of 30% H2O2 per milliliter for 30 min at room temperature in the dark. The enzymatic reaction was stopped with 12.5% H2SO4, and absorbance at 492 nm was measured using a microplate reader (Thermo Fisher Scientific, Waltham, MA, U.S.A.). […]
# [1] = neutral liposomes, 0.30 μmol adjuvant per dose, 1 week after booster
# [2] = neutral liposomes, 0.30 μmol adjuvant per dose, s.c., 1 week after booster
Compound,"Induction of cytokines IL-1β, IL-6, IL-8 and TNF-α, compound alone (human PBMCs)",Log10 (anti-OVA IgG1/anti-OVA IgG2a) (NIH/OlaHsd mice),Ovalbumin-specific IgG2a response (in words) (NIH/OlaHsd mice; [1]),Adjuvant activity: ovalbumin-specific IgG (in words) (NIH/OlaHsd mice; [2]),Ovalbumin-specific IgG1 response (in words) (NIH/OlaHsd mice; [1]),Boost in the elicited ovalbumin-specific IgG response (NIH/OlaHsd mice; [2]) [fold]
"COc1cc(/C=C/C(=O)NCC(=O)N[C@H](C(=O)N[C@H](CCC(=O)OC2CCCC2)C(=O)OC2CCCC2)C(C)C)ccc1O [Compound 68, Dicyclopentyl ((E)-3-(4-Hydroxy-3-methoxyphenyl)acryloyl)glycyl-L-valyl-D-glutamate]",induced small increases in the levels of all four of these cytokines,2.28 ± 0.13,slight suppression of the IgG2a response,devoid of adjuvant activity,,
"CCCCCCCCCCCCCCCCCC(=O)Oc1ccc(/C=C/C(=O)NCC(=O)N[C@H](C(=O)N[C@H](CCC(=O)OCC)C(=O)OCC)[C@@H](C)O)cc1OC [Compound 81, Diethyl ((E)-3-(3-Methoxy-4-(stearoyloxy)phenyl)acryloyl)glycyl-L-threonyl-D-glutamate]",induced lower responses,2.18 ± 0.24,,,largely IgG1-based response,3
"CCCCCCCCCCCCCCCCCC(=O)Oc1ccc(/C=C/C(=O)NCC(=O)N[C@H](C(=O)N[C@H](CCC(=O)OCC)C(=O)OCC)C(C)C)cc1OC [Compound 75, Diethyl ((E)-3-(3-Methoxy-4-(stearoyloxy)phenyl)acryloyl)glycyl-L-valyl-D-glutamate]",induced lower responses,2.07 ± 0.17,highest levels of IgG2a antibodies,,significantly enhanced,5
